Measured values taken from patent publication US11535630B2, “Apelin receptor (APJ) agonists and uses thereof” (Research Triangle Institute, priority 2015, dated 2022).
Where two headings read alike, the source gives them in different places.

Molecular target: T1, apelin receptor (APJ) (Homo sapiens, UniProt P35414)
T1 sequence (P35414 1-380): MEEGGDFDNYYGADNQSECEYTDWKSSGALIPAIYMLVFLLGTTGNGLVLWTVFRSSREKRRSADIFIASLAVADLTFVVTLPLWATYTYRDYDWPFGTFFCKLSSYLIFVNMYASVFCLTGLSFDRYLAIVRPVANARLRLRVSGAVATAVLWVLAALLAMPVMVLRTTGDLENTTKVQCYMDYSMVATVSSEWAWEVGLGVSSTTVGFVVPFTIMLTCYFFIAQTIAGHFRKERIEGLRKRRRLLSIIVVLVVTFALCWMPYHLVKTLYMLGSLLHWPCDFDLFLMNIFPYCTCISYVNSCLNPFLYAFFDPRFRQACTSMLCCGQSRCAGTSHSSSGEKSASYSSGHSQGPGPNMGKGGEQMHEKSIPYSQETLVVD
Assay: In vitro apelin agonist activity (methods of Giddings et al., Apelin-13 as positive control)
Format: cell-based
Conditions: in vitro apelin agonist activity, methods of Giddings et al., Apelin-13 as positive control
Text: Characterization of the Apelin Agonist Activity of the Compounds
1:39-47, the contents of which are hereby incorporated by reference in its entirety. Using the methods described in Giddings et al. and Apelin-13 as a positive control.

SMILES	EC50 (read-out: EC50 (nM) Ave) [nM]	EC50 (EC50 (nM) Ave) [nM]
O=C(C[C@H](CCN1CCCC[C@H]1C(F)(F)F)NC(=O)c1cc(-c2ccccc2C(F)(F)F)n(C2CCCC2)n1)NC1CCC1 [compound 496, (3S)-N-cyclobutyl-3-({1-cyclopentyl-5-[2-(trifluoromethyl)phenyl]-1H-pyrazol-3-yl}formamido)-5-[(2S)-2-(trifluoromethyl)piperidin-1-yl]pentanamide]		30
COc1cccc(F)c1-c1cc(C(=O)N[C@@H](CCN2CCCCC2)CC(=O)NC2CCC2)nn1C1CCCC1 [compound 372, (3S)-N-cyclobutyl-3-{[1-cyclopentyl-5-(2-fluoro-6-methoxyphenyl)-1H-pyrazol-3-yl]formamido}-5-(piperidin-1-yl)pentanamide]	90	
Cc1nnc(C[C@H](CCc2ccc(F)cc2)NC(=O)c2cc(-c3ccccc3C(F)(F)F)n(C3CCCC3)n2)[nH]1 [compound 471, 1-cyclopentyl-N-[(2S)-4-(4-fluorophenyl)-1-(5-methyl-4H-1,2,4-triazol-3-yl)butan-2-yl]-5-[2-(trifluoromethyl)phenyl]-1H-pyrazole-3-carboxamide]	1140	
O=C(O)C[C@H](CCN1CCCC(F)(F)C1)NC(=O)c1cc(-c2cnccc2Cl)n(C2CCCC2)n1 [compound 467, (3S)-3-{[5-(4-chloropyridin-3-yl)-1-cyclopentyl-1H-pyrazol-3-yl]formamido}-5-(3,3-difluoropiperidin-1-yl)pentanoic acid]	> 10000	
COc1cccc(OC)c1-c1cc(C(=O)N[C@H](CC(=O)Nc2nccs2)Cc2ccccc2)nn1C1CCCC1 [compound 402, (3S)-3-{[1-cyclopentyl-5-(2,6-dimethoxyphenyl)-1H-pyrazol-3-yl]formamido}-4-phenyl-N-(1,3-thiazol-2-yl)butanamide]	203	
COc1cccc(OC)c1-c1cc(C(=O)N[C@@H](CCN2CCN(C)CC2)CC(=O)O)nn1C1CCCC1 [compound 308, (3S)-3-{[1-cyclopentyl-5-(2,6-dimethoxyphenyl)-1H-pyrazol-3-yl]formamido}-5-(4-methylpiperazin-1-yl)pentanoic acid]	> 10000	
COc1cccc(OC)c1-c1cc(C(=O)N[C@@H](CCN2CCCCC2)CC(=O)N(C)c2nccs2)nn1C1CCCC1 [compound 351, (3S)-3-{[1-cyclopentyl-5-(2,6-dimethoxyphenyl)-1H-pyrazol-3-yl]formamido}-N-methyl-5-(piperidin-1-yl)-N-(1,3-thiazol-2-yl)pentanamide]	73	
CCc1ccccc1-c1cc(C(=O)N[C@@H](CCN2CCCCC2)CC(=O)Nc2nccs2)nn1C1CCCC1 [compound 406, (3S)-3-{[1-cyclopentyl-5-(2-ethylphenyl)-1H-pyrazol-3-yl]formamido}-5-(piperidin-1-yl)-N-(1,3-thiazol-2-yl)pentanamide]	22	
COCCN(C)C(=O)C[C@H](CCN1CCCCC1)NC(=O)c1cc(-c2c(OC)cccc2OC)n(C2CCCC2)n1 [compound 334, (3S)-3-{[1-cyclopentyl-5-(2,6-dimethoxyphenyl)-1H-pyrazol-3-yl]formamido}-N-(2-methoxyethyl)-N-methyl-5-(piperidin-1-yl)pentanamide]	6570	
O=C(C[C@H](CCN1CCCCC1)NC(=O)c1cc(-c2c(F)cc(F)cc2F)n(C2CCCC2)n1)NC1CCC1 [compound 354, (3S)-N-cyclobutyl-3-{[1-cyclopentyl-5-(2,4,6-trifluorophenyl)-1H-pyrazol-3-yl]formamido}-5-(piperidin-1-yl)pentanamide]	> 10000	
COc1cccc(OC)c1-c1cc(C(=O)N[C@@H](CCN2CCOCC2)CC(=O)NC2CCC2)nn1C1CCCC1 [compound 312, (3S)-N-cyclobutyl-3-{[1-cyclopentyl-5-(2,6-dimethoxyphenyl)-1H-pyrazol-3-yl]formamido}-5-(morpholin-4-yl)pentanamide]	343	
COc1cccc(OC)c1-c1cc(C(=O)N[C@@H](CCc2ccccc2)C(=O)NCc2nccs2)nn1C1CCCC1 [compound 388, (2S)-2-{[1-cyclopentyl-5-(2,6-dimethoxyphenyl)-1H-pyrazol-3-yl]formamido}-4-phenyl-N-(1,3-thiazol-2-ylmethyl)butanamide]	399	
COc1cccc(OC)c1-c1cc(C(=O)N[C@@H](CCc2ccccc2)C(=O)Nc2nccs2)nn1C1CCCC1 [compound 396, (2S)-2-{[1-cyclopentyl-5-(2,6-dimethoxyphenyl)-1H-pyrazol-3-yl]formamido}-4-phenyl-N-(1,3-thiazol-2-yl)butanamide]	> 10000	
CCc1ccccc1-c1cc(C(=O)N[C@@H](CCN2CCCC(F)(F)C2)CC(=O)O)nn1C1CCCC1 [compound 404, (3S)-3-{[1-cyclopentyl-5-(2-ethylphenyl)-1H-pyrazol-3-yl]formamido}-5-(3,3-difluoropiperidin-1-yl)pentanoic acid]	65	
CC(F)(F)c1ccccc1-c1cc(C(=O)N[C@@H](CCN2CCC(=O)CC2(C)C)CC(=O)O)nn1C1CCCC1 [compound 611, (3S)-3-({1-cyclopentyl-5-[2-(1,1-difluoroethyl)phenyl]-1H-pyrazol-3-yl}formamido)-5-(2,2-dimethyl-4-oxopiperidin-1-yl)pentanoic acid]	509	
COc1cccc(OC)c1-c1cc(C(=O)N[C@@H](CCNCc2ccncc2)CC(=O)O)nn1C1CCCC1 [compound 310, (3S)-3-{[1-cyclopentyl-5-(2,6-dimethoxyphenyl)-1H-pyrazol-3-yl]formamido}-5-[(pyridin-4-ylmethyl)amino]pentanoic acid]	> 10000	

Continued, in another order:

EC50 (read-out: EC50 (nM) Ave) [nM]	SMILES	EC50 (EC50 (nM) Ave) [nM]
215	O=C(O)C[C@H](CCN1CCCCC1)NC(=O)c1cc(-c2ccccc2C(F)(F)F)n(C2CCCC2)n1 [compound 494, (3S)-3-({1-cyclopentyl-5-[2-(trifluoromethyl)phenyl]-1H-pyrazol-3-yl}formamido)-5-(piperidin-1-yl)pentanoic acid]	
67	C[C@@H](C[C@@H](CC(=O)O)NC(=O)c1cc(-c2ccccc2C(C)(F)F)n(C2CCCC2)n1)N1CCC(F)(F)C1 [compound 600, (3S,5S)-3-({1-cyclopentyl-5-[2-(1,1-difluoroethyl)phenyl]-1H-pyrazol-3-yl}formamido)-5-(3,3-difluoropyrrolidin-1-yl)hexanoic acid]	
98	CC1(F)CCN(CC[C@@H](CC(=O)O)NC(=O)c2cc(-c3ccccc3C(F)(F)F)n(C3CCCC3)n2)C1 (stereo partly drawn) [compound 609, (3S)-3-({1-cyclopentyl-5-[2-(trifluoromethyl)phenyl]-1H-pyrazol-3-yl}formamido)-5-(3-fluoro-3-methylpyrrolidin-1-yl)pentanoic acid]	
7.5	CC(F)(F)c1ccccc1-c1cc(C(=O)N[C@@H](CCN2CCCC(F)(F)C2)CC(=O)Nc2nccs2)nn1C1CCCC1 [compound 428, (3S)-3-({1-cyclopentyl-5-[2-(1,1-difluoroethyl)phenyl]-1H-pyrazol-3-yl}formamido)-5-(3,3-difluoropiperidin-1-yl)-N-(1,3-thiazol-2-yl)pentanamide]	
34	O=C(C[C@H](CCN1CCCCCC1)NC(=O)c1cc(-c2ccccc2C(F)(F)F)n(C2CCCC2)n1)NC1CCC1 [compound 505, (3S)-5-(azepan-1-yl)-N-cyclobutyl-3-({1-cyclopentyl-5-[2(trifluoromethyl)phenyl]-1H-pyrazol-3-yl}formamido)pentanamide]	
> 10000	O=C(C[C@H](CCN1CCCCC1)NC(=O)c1cc(-c2ccc(F)cc2OCC(F)(F)F)n(C2CCCC2)n1)NC1CCC1 [compound 366, (3S)-N-cyclobutyl-3-({1-cyclopentyl-5[4-fluoro-2-(2,2,2-trifluoroethoxy)phenyl]-1H-pyrazol-3-yl]formamido)-5-(piperidin-1-yl)pentanamide]	
355	O=C(O)C[C@H](CCN1CCCCC1=O)NC(=O)c1cc(-c2ccccc2C(F)(F)F)n(C2CCCC2)n1 [compound 587, (3S)-3-({1-cyclopentyl-5-[2-(trifluoromethyl)phenyl]-1H-pyrazol-3-yl}formamido)-5-(2-oxopiperidin-1-yl)pentanoic acid]	
32	CN(CC[C@@H](CC(=O)NC1CCC1)NC(=O)c1cc(-c2ccccc2C(F)(F)F)n(C2CCCC2)n1)C1CCC1 [compound 506, (3S)-N-cyclobutyl-5-[cyclobutyl(methyl)amino]-3-({1-cyclopentyl-5-[2-(trifluoromethyl)phenyl]-1H-pyrazol-3-yl}formamido)pentanamide]	
24	CC(C)CN(C)CC[C@@H](CC(=O)NC1CCC1)NC(=O)c1cc(-c2ccccc2C(F)(F)F)n(C2CCCC2)n1 [compound 493, (3S)-N-cyclobutyl-3-({1-cyclopentyl-5-[2-(trifluoromethyl)phenyl]-1H-pyrazol-3-yl}formamido)-5-[methyl(2-methylpropyl)amino]pentanamide]	
26	Cc1cnn(CC[C@@H](CC(=O)NC2CCC2)NC(=O)c2cc(-c3ccccc3C(F)(F)F)n(C3CCCC3)n2)c1 [compound 501, (3S)-N-cyclobutyl-3-({1-cyclopentyl-5-[2-(trifluoromethyl)phenyl]-1H-pyrazol-3-yl}formamido)-5-(4-methyl-1H-pyrazol-1-yl)pentanamide]	
302	O=C(O)C[C@H](CCN1CCC[C@H](F)C1)NC(=O)c1cc(-c2ccccc2C(F)(F)F)n(C2CCCC2)n1 [compound 583, (3S)-3-({1-cyclopentyl-5-[2-(trifluoromethyl)phenyl]-1H-pyrazol-3-yl}formamido)-5-[(3S)-3-fluoropiperidin-1-yl]pentanoic acid]	
